Assay results taken from PubChem BioAssay (NCI).
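Following 48 hours of exposure in 96-well plates, responses at five concentrations were used to interpolate endpoints linearly. Here, GI50 denotes the concentration required for 50% inhibition of growth. The concentration for full growth arrest is given as TGI.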

Assays:
Assay in all cases: NCI tumour cell line growth inhibition, 48 h
A549 NSCLC = test system: A549 NSCLC
ACHN renal = test system: ACHN renal
HOP-62 NSCLC = test system: HOP-62 NSCLC
KM12 colon = test system: KM12 colon
SK-MEL-28 melanoma = test system: SK-MEL-28 melanoma
SN12C renal = test system: SN12C renal
UACC-62 melanoma = test system: UACC-62 melanoma
HOP-92 NSCLC = test system: HOP-92 NSCLC
TK-10 renal = test system: TK-10 renal

SMILES | TGI (A549 NSCLC) [µM] | TGI (ACHN renal) [µM] | TGI (HOP-62 NSCLC) [µM] | TGI (KM12 colon) [µM] | TGI (SK-MEL-28 melanoma) [µM] | TGI (SN12C renal) [µM] | TGI (UACC-62 melanoma) [µM] | TGI (HOP-92 NSCLC) [µM] | TGI (TK-10 renal) [µM] | GI50 (HOP-92 NSCLC) [µM] | GI50 (A549 NSCLC) [µM] | GI50 (ACHN renal) [µM] | GI50 (HOP-62 NSCLC) [µM] | GI50 (KM12 colon) [µM] | GI50 (SK-MEL-28 melanoma) [µM] | GI50 (SN12C renal) [µM] | GI50 (TK-10 renal) [µM] | GI50 (UACC-62 melanoma) [µM]
N=S(=O)(c1ccccc1)c1ccccc1 | > 100 | > 100 | > 100 | > 100 | > 100 | > 100 | > 100 | – | – | – | – | – | – | – | – | – | – | –
Brc1c2nc3ccccc3nc2n2ccc3ccccc3c12 | > 100 | > 100 | > 100 | > 100 | > 100 | > 100 | > 100 | > 100 | > 100 | – | – | – | – | – | – | – | – | –
C[N+](C)=c1ccc2nc3c(ccc4ccccc43)oc-2c1 | 37.1 | 26.7 | 34.2 | 32.2 | 28.4 | 31.8 | 16.3 | 32.7 | 31.1 | – | – | – | – | – | – | – | – | –
N#CNC(=NCc1ccccc1)NCCc1c[nH]c2ccccc12 | > 100 | > 100 | > 100 | > 100 | > 100 | > 100 | > 100 | – | > 100 | – | – | – | – | – | – | – | – | –
Cc1c(-c2coc(-c3ccccc3)n2)c(=O)n(-c2ccccc2)n1C | > 100 | > 100 | > 100 | > 100 | > 100 | > 100 | – | > 100 | > 100 | – | – | – | – | – | – | – | – | –
C/C=C/c1cc2c(c(=O)o1)C(=O)[C@@H](O)[C@H](C)O2 | 34.3 | – | 60.8 | 31 | 29.5 | 29.2 | 34.1 | 31.2 | – | – | – | – | – | – | – | – | – | –
C=C1C2C[C@@H]3OC4CC5O[C@]6(CC5OC4C(C)C3OC(=O)CC3CC[C@@H]4OC5C7OC8C[C@](CCC9CC(=C)[C@H](CCC(C[C@H]1C)O2)O9)(OC7C4O3)O[C@@H]85)C[C@@H]1O[C@@]2(CC(C)[C@@H]3OC(CC(=O)CCO)C(O)C[C@@H]3O2)CC(C)[C@@H]1O6 (some centres undefined) | 1.28 | 1.71 | 0.0034 | 0.00228 | – | 0.206 | 0.181 | 0.0017 | – | – | – | – | – | – | – | – | – | –
O=C(NC12CC3CC(CC(C3)C1)C2)C(=O)c1c[nH]c2ccc(Br)cc12 | 42.4 | > 100 | – | 41.7 | > 100 | 61.2 | > 100 | 48.1 | 92.6 | – | – | – | – | – | – | – | – | –
CO[C@H]1CC[C@]2(C)C3=CC[C@@]4(C)C(CC[C@@H]4C(C)CC[C@@H](C)C(C)C)C(=CCC2C1)O3 (some centres undefined) | > 25 | > 25 | > 25 | > 25 | > 25 | > 25 | > 25 | > 25 | > 25 | – | – | – | – | – | – | – | – | –
Cc1c(OCCCOc2ccc3c(=O)cc(-c4ccccc4)oc3c2C)ccc2c(=O)cc(-c3ccccc3)oc12 | > 100 | – | > 100 | > 100 | > 100 | – | > 100 | > 100 | > 100 | – | – | – | – | – | – | – | – | –
C[N+](C)(C)CCOC(=O)/C=C/c1cnc[nH]1 | > 500 | – | > 500 | > 500 | > 500 | > 500 | > 500 | > 500 | – | – | – | – | – | – | – | – | – | –
COC1=CC(=O)C2C(C1=O)[C@@H]1c3ccccc3OC(C)(C)[C@H]21 (some centres undefined) | > 100 | 27.2 | > 100 | > 100 | 32.8 | – | – | 35.4 | 38.6 | – | – | – | – | – | – | – | – | –
COc1cccc2c1C(=O)c1c(O)c3c(c(O)c1C2=O)C[C@@](O)(C(=O)CN1CCOCC1)C[C@@H]3OC1CC(N)C(O)C(C)O1 (some centres undefined) | 48.6 | – | 14.2 | 51.5 | 29.1 | > 100 | 15.7 | 33.9 | – | 5.27 | – | – | – | – | – | – | – | –
Nc1ncnc2c1sc(=S)n2-c1ccccc1 | > 100 | > 100 | > 100 | > 100 | > 100 | > 100 | > 100 | > 100 | > 100 | – | – | – | – | – | – | – | – | –
COc1cc(N)c2[nH]c3c(C)ccc(C)c3c2c1 | > 100 | > 100 | > 100 | > 100 | > 100 | > 100 | – | – | > 100 | – | – | – | – | – | – | – | – | –
C=CCNc1nc(O)c(/C=C2\C=Nc3ncccc32)s1 | 19.4 | > 100 | 5.77 | 8.23 | 9.14 | 5.52 | 4.22 | 6.38 | 16.8 | 0.227 | 7.08 | 2.21 | 1.84 | 2.51 | 2.52 | 2.1 | 2.18 | 1.69
NC(=O)COc1c(Br)cc(Br)cc1Br | > 100 | > 100 | > 100 | > 100 | > 100 | > 100 | > 100 | – | – | – | – | – | – | – | – | – | – | –
c1ccc2[nH]c3c(N=NC4=NCCN4)c4ccccc4c-3nc2c1 | 16.8 | > 100 | 39.3 | 15.8 | 27.2 | > 100 | 21.1 | 20.4 | 66.6 | – | – | – | – | – | – | – | – | –
N=c1n(CC(=O)NC23CC4CC(CC(C4)C2)C3)c2ccccc2n1CC(=O)NC12CC3CC(CC(C3)C1)C2 | – | 3.94 | 3.48 | 2.98 | 3.17 | 3.45 | 3.45 | 3.06 | 3.08 | – | – | – | – | – | – | – | – | –
